Test results: patent US20220315895A1, “METHODS OF MAKING OLIGOPOTENT AND UNIPOTENT PRECURSORS” (Transfusion Health, LLC, priority 2019, published 2022)

Legend:
Format in all cases: cell-based, human
[1] = test system: CD15+ cells derived from cord blood CD34+ cells; assay: Progenitor Differentiation and Maturation Cultures, CD15+ output (Example 42)
Description: Progenitor Differentiation Cultures were initiated following 14, 28, 42 and 64 days of CD34 expansion culture. Differentiation Sequences were created by culturing cells in a series of Differentiation Medias, for six or seven days. Differentiation Medias were made with purified cytokines: SCF, G-CSF, GM-CSF, FLT3L, IL-3, IL-6, TPO (all from R&D Systems), prepared in either StemSpan SFEM I or RPMI+10% FBS, as indicated in Table 12A and Table 12B below. Approximately 5,000-10,000 CD34+ cells were seeded into the “Day 0 media” indicated in Table 13 in 12-well plates at the beginning of the Differentiation Culture. At day two or three, a portion of cells was seeded into the subsequent media in the Sequence. If media was to be changed to a different Differentiation Media at a given day, the cells were first placed into 15 mL conical tubes and centrifuged for 5 minutes at 300×g. All supernatant was removed prior to resuspension in new media and re-plating. At days 6 or 7, as indicated in Table 13 and Table 15, a portion of cells was analyzed. […]
A number of quantities were calculated to describe the output of Differentiation Culture and the combined effects of Expansion and Differentiation Culture. These quantities and their relationships are as described in Example 41 and depicted in FIG. 68.

CD15+/CD14− cells = assay: Respiratory burst assay, dihydrorhodamine-123 / PMA (Example 39); conditions: Formula I-expanded Differentiation Cultures, day 13; 200 nM PMA 30 minutes
Procedure: On day 13 of Granulocyte Differentiation Culture, a portion of the culture was removed for in vitro analysis of granulocyte function through two separate assays for phagocytosis and respiratory burst.
In the respiratory burst assay, the ability of cells to generate reactive oxygen species (used to kill ingested bacteria) was measured. Cells were first pulsed for 15 minutes with dihydrorhodamine-123, a reagent that fluoresces only after it has been oxidized to rhodamine 123. Following this incubation, cells were treated for 30 minutes with 200 nM phorbol 12-myristate 13-acetate (PMA) to non-specifically activate the respiratory burst. Control samples without PMA were also prepared. Following this incubation, cells were stained with antibodies to CD15 and CD14, washed thoroughly, then analyzed via flow cytometry on an Attune flow cytometer. CD15+/CD14− cells were quantified for rhodamine 123 fluorescence, indicating activation of oxidative burst.

[2] = test system: expanded cord blood CD34+ cells, erythroid lineage (CD71, CD235a); assay: Erythroid Differentiation Culture after Expansion Culture (Example 38); conditions: for cells with markers of erythrocyte differentiation (CD71 and/or CD235a), of total cells: seven days Erythroid Differentiation Culture; for cells with markers of erythrocyte differentiation (CD71 and/or CD235a), of total cells / cells positive for CD235a (maturing erythrocyte differentiation): average
Procedure: At days 21 and 63, CD34+ enriched cells were placed into Differentiation Cultures, described below.
Differentiation cultures were initiated using Erythroid, Myeloid (granulocyte and monocyte), and Megakaryocyte HemaTox kits from STEMCELL technologies following the manufacturer's instructions. In brief, lineage media was prepared by adding cytokine cocktails for erythrocyte (SCF, IL-3, and EPO), myeloid (i.e. mixed granulocyte/monocyte, SCF, TPO, G-CSF, and GM-CSF) or megakaryocyte (SCF, IL-6, IL-9 and TPO) lineage differentiation to their respective kits' media, then adding approximately 30-100 CD34+ cells for erythroid or myeloid cultures, or 300-1000 CD34+ cells for megakaryoid cultures. Exact cell numbers plated were quantified for later analysis. All incubations for Differentiation Culture took place at 3% oxygen (controlled by nitrogen) and 5% CO2.
Following seven days of erythroid or myeloid cultures, or ten days for megakaryoid cultures, differentiated cell output was quantified using flow cytometry. Erythroid output was quantified using anti-CD71 and anti-CD235a antibodies, and megakaryocyte lineage output was quantified using anti-CD41 and anti-CD42b antibodies. Granulocyte and monocyte lineage outputs were assessed in tandem, using CD14 and CD15 antibodies, with granulocyte lineage cells being CD15+/CD14−, and monocyte lineage cells being CD14+/CD15−.
A number of quantities were calculated to assess the effect of expansion of CD34+ cells in the +Formula I Condition on the output of lineage differentiated cells. “Per-Assayed-CD34+ Cell Output” describes the output of differentiated cells per CD34+ cell placed into Differentiation Culture, and is calculated by dividing the total number of lineage-positive cells by the input CD34+ cell number quantified at Differentiation Culture initiation at day 1, 21, or 63. “Per-expanded-day-1-CD34+ cell output” describes the number of differentiated cells of a given lineage that may be produced from a single CD34+ cell following both Expansion Cell Culture (if expanded) followed by Differentiation Culture, and is calculated by multiplying Per-Assayed-CD34+ Cell Output by the fold expansion of CD34+ cells from day 1 to the day of analysis, either day 21 or day 63. “Per-banked-CBU lineage output” describes the number of differentiated cells of a given lineage that may be produced using the CD34+ cells from a full cord blood unit, and is calculated by multiplying the per-expanded-day-1-CD34+ cell output by 2×10^6, a conservative estimate the number of CD34+ cells in an average cord held in a public cord blood bank (Sun, J., Allison, J., McLaughlin, C., Sledge, L., Waters-Pick, B., Wease, S., and Kurtzberg, J. (2010). Differences in quality between privately and publicly banked umbilical cord blood units: a pilot study of autologous cord blood infusion in children with acquired neurologic disorders. Transfusion (Paris) 50, 1980-1987). This per-banked-CBU lineage output provides the ability to gauge the number of therapeutic units that may be derived from a single cord blood unit available as input to the manufacturing of a therapeutic product, and enables comparison to current state-of-the-art methods. Where relevant therapeutic dose benchmarks were available, this per-banked-CBU lineage output was used to calculate the number of therapeutic units that may be prepared from a single banked CBU unit. We calculated therapeutic units for granulocyte precursors, using 50 billion (5×10^10) cells per dose as a conservative benchmark (Valentini, C. G., Farina, F., Pagano, L., and Teofili, L. (2017). Granulocyte Transfusions: A Critical Reappraisal. Biol. Blood Marrow Transplant. 23, 2034-2041). […]

## CC(C)(C)C(=O)Nc1ccc2c(c1)C(O)c1ccccc1-2 (stereo not shown) [Compound 1.010]
[1]; 64 days of CD34+ expansion in +Formula I conditions, condition TT
  fold increase of CD15+ cell output at days six or seven of Differentiation Culture: about 43,000 fold
[1]; expanded in +Formula I conditions 14, 28 and 42 days, Medias A, B, C, H or T, by 6 to 7 days
  CD15+ cells as percentage of total live cells: > 47%
CD15+/CD14− cells
  cells that activated respiratory burst when stimulated with PMA: 56%
[2]; +Formula I expansion (Compound 1.010 8 μM) to day 21, then 7 days differentiation
  fold increase of per-expanded-day-1-CD34+ cell output, erythroid lineage, over uncultured cells: 301 fold
[2]; +Formula I expansion to day 63, then 7 days differentiation
  fold increase of per-expanded-day-1-CD34+ cell output, erythroid lineage, over uncultured cells: 91,000 fold
[2]; expanded 21 or 63 days in Formula I condition, day seven of Erythroid Differentiation Culture
  CD71−/CD235a+ cells (mature erythrocytes): No CD71−/CD235a+ cells were detected
[2]; expanded 21 days in Formula I Condition
  cells with markers of erythrocyte differentiation (CD71 and/or CD235a), of total cells: 50%
[2]; expanded 21 days in Formula I condition, day seven of Erythroid Differentiation Culture
  cells positive for CD235a (maturing erythrocyte differentiation): 46%
[2]; expanded 63 days in Formula I Condition
  cells with markers of erythrocyte differentiation (CD71 and/or CD235a), of total cells: 75%
[2]; expanded 63 days in Formula I condition, day seven of Erythroid Differentiation Culture
  cells positive for CD235a (maturing erythrocyte differentiation): 86%
